How the values were obtained:
[1] = system: hES cell derived hepatocyte-like cells; assay: qRT-PCR gene expression after RA treatment, basic protocol A (Example 5)
Method: Following the basic protocol A, hES cell derived hepatocyte-like cells cultured on a Gelatin-based coating were treated with 1 μM 9-cis retinoic acid for 5 hr on day 21 of the protocol (i.e. on day 7 of the differentiation and maturation phase) or 24 hr on day 22-23 of the protocol (i.e. on day 8-9 of the differentiation and maturation phase).
Cells were harvested on day 21 or 23 of the protocol (i.e. on day 7 or 9 of the differentiation and maturation phase) and gene expression was analysed using qRT-PCR, normalised to the house-keeping gene CREBBP and the results presented as relative quantification normalised to a calibrator (FIG. 3.)

hESC-derived hepatocytes [2] = system: hESC-derived hepatocytes
Method: Following the basic protocol A, differentiating hES cell derived hepatic progenitors and hepatocyte-like cells cultured on a Gelatin-based coating were treated with 1 μM 9-cis retinoic acid for 5, 24 or 48 hr exposures on days 21, 22 or 23 of the protocol (i.e. on day 7, 8 or 9 of the differentiation and maturation phase; FIG. 2 A, B, D), repeated 5 hr exposures on days 11, 16, 23, 25 and 30 of the protocol (i.e. on day 4 of the pre-hepatic phase and days 2, 9, 11 and 16 of the differentiation and maturation phase; FIG. 2 C), or long term/continuous treatment from day 14 and onwards (i.e.starting on day 1 of the differentiation and maturation phase; FIG. 2D).
Immediately after end of the RA treatment, the cell cultures are subjected to a CYP activity assay according to the following protocol: Cells are washed twice with warm Williams medium E w/o phenol red (+0.1% PEST). Then CYP activity assay, consisting of warm Williams medium E w/o phenol red (+0.1% PEST), 2 mM L-Glutamine, 25 mM HEPES, 26 μM Phenacetin (model substrate for CYP1A), 9 μM Diclofenac (model substrate for CYP2C9) and 3 μM Midazolam (model substrate for CYP3A), is added to the cells (e.g. 220 μl/24 well) and incubated for 16 hr at 37° C. Then supernatant is collected and centrifuged for 20 min at 10.000 rcf at 4° C. Subsequently, 120 μl of the supernatant is transferred into a 96 well plate which is sealed with a tight seal tape and stored at −20 or −80° C. until LC/MS-analysis of metabolite formation: Acetaminophen (Paracetamol) for CYP1A, OH-Diclofenac for CYP2C9 and OH-Midazolam for CYP3A.

RXR = conditions: cited from earlier work; for affinity of binding to RXR: compared with 9-cis-retinoic acid (Heyman et al.)
[3] = system: hepatocyte-like cells derived from hES cells; assay: HNF4α TaqMan assays: HNF4α isoform expression after 9 cis-retinoic acid (Example 3); assay type: cell-based, human; conditions: for expression of the adult HNF4a1-3 isoforms / expression of the fetal HNF4a4-9 isoforms: 1 or 2 μM
Description: Three different HNF4α-TaqMan assays were used for analysis of HNF4α expression: one assay detecting all 9 HNF4α isoforms, one assay detecting isoforms 1-3 (including the adult isoforms 1 and 2) and one assay detecting isoforms 4-9 (including the fetal isoforms 7 and 8). Isoforms 3, 4, 5, 6 and 9 are not expressed at all in vivo or at very low levels and can therefore be neglected.

[4] = system: hiPSC-derived hepatocytes; assay: CYP activity assay, early 5-aza-2-deoxycytidine plus late RA, Kenpaullone and matrix overlay (Example 8); assay type: cell-based, human; conditions: additional effect of treatment with the DNA demethylation agent on day 2-3
Method: (§1) Following the basic protocols C (hESC-derived hepatocytes) or D (hiPSC-derived hepatocytes), differentiating hES and hiPS cells in the pre-endodermal phase were treated with 10 nM of the DNA demethylating agent 5-aza-2-deoxycytidine for 24 hr on day 2 to 3 of the protocol.
(§2) Later in the protocol, hPS cell derived hepatic progenitor cells and hepatocyte-like cells cultured on a Fibronectin-based coating were treated with continuous/long term treatment with 0.2 μM 9cis-RA and 0.5 μM Kenpaullone starting on day 14 of the protocol (i.e. on day 1 of the differentiation and maturation phase) and received thin Fibronectin-Collagen I-overlays on day 14 and 16 of the protocol (i.e. on day 1 and 3 of the differentiation and maturation phase) and is refreshed thereafter once a week on day 23, 30, 37 and so on (i.e. on day 9, 16, 23 and so on of the differentiation and maturation phase).
(§3) For analysing functional expression of CYP enzymes on day 36 (i.e. on day 22 of the maturation step; FIG. 10), the cell cultures are subjected to a CYP activity assay according to the following protocol: Cells are washed twice with warm Williams medium E w/o phenol red (+0.1% PEST). […]

hESC-derived hepatocytes [5] = assay: as above; assay type: cell-based, human; conditions: additional effect of treatment with the DNA demethylation agent on day 2-3
Method: as §1, §2, §3

[6] = system: DE derived from hPSC lines P11032, SA181 and P11012; assay: qRT-PCR of stem cell and DE markers in DE, 5-aza-2-deoxycytidine or 5-azacytidine (Example 12); assay type: cell-based, human; conditions: 10 nM 5-aza-2-deoxycytidine or 1 μM 5-azacytidine on day 2-3; day 7
Method: Following the basic protocols C (P11032, SA181) or D (P11012), cells derived from 3 different hPSC lines were treated with either 10 nM 5-aza-2-deoxycytidine or 1 μM 5-azacytidine on day 2-3 during the pre-endodermal phase.

RAR = conditions: Allenby et al.; Idres et al.; cited from earlier work
[7] = system: hiPSC-derived hepatocytes; assay: CYP activity assay, 9cis-RA or other RXR- and RAR-agonists (Example 15); assay type: cell-based, human; conditions: instead of 0.2 μM 9cis-RA: 0.5 μM ATRA, 5 μM AM580, 0.2 μM 13cis-RA, 5 μM LGD1069, 5 μM LG100268 or 5 μM SR11237; with Kenpaullone, overlay, early 5-aza-2-deoxycytidine; day 36
Method: Some experimental groups were treated with 0.5 μM all trans-retinoic acid (ATRA), 5 μM AM580, 0.2 μM 13cis-RA, 5 μM LGD1069, 5 μM LG100268 or 5 μM SR11237 instead of 0.2 μM 9cis-RA.

[8] = continuous/long-term RA treatment versus 5 and 24 hr RA exposures
[9] = 24-, 48 hr-exposure and continuous RA-treatment
[10] = 5 hr RA-exposure, day 23, analysed immediately after the exposure

**Q.** For 9-cis-retinoic acid [RA], which “mRNA expression of the adult hepatic gene CYP3A4” value ([1]; 5 hr RA-exposure (1 μM) on day 21, immediately after and 2 and 7 days later (day 23 and 30)) is on record?
**A.** increase

**Q.** And the “decrease of expression of the fetal hepatic gene CYP3A7” value ([1]; 5 hr exposure on day 21, 2 days later on day 23)?
**A.** strongly

**Q.** What about the “decrease of expression of the fetal hepatic gene CYP3A7” value ([1]; 5 hr exposure on day 21, immediately after the exposure on day 21) of the same compound?
**A.** slightly

**Q.** And the “increase of mRNA expression of the adult hepatic gene PXR” value ([1]; 5 hr exposure on day 21, measured on day 21)?
**A.** not immediately after the 5 hr exposure

**Q.** And the “mRNA expression of the adult hepatic gene PXR” value ([1]; 5 hr exposure on day 21, measured on day 23)?
**A.** increases

**Q.** What about the “mRNA expression of the adult hepatic gene PXR” value ([1]; 24 hr RA-exposure on day 22-23) of the same compound?
**A.** increases

**Q.** And the “adult CYP3A4 expression” value ([1]; 24 hr RA-exposure on day 22-23, day 23)?
**A.** immediate up-regulation

**Q.** What about the “expression of the fetal hepatic gene CYP3A7” value ([1]; 24 hr RA-exposure on day 22-23, immediately after the exposure on day 23) of the same compound?
**A.** strongly decreases

**Q.** What about the “fetal hepatic gene α-Fetoprotein (AFP) expression” value [1, 8] of the same compound?
**A.** stronger down-regulation

**Q.** And the “mRNA expression of the adult hepatic gene CAR” value [1, 8]?
**A.** higher increase

**Q.** And the CYP1A activity (hESC-derived hepatocytes [2])?
**A.** strongest increase

**Q.** And the “CYP1A, 2C9 and 3A activities” value (hESC-derived hepatocytes [2])?
**A.** increased

**Q.** What about the “CYP1A, CYP2C9 and 3A activities” value (hESC-derived hepatocytes [2]) of the same compound?
**A.** increase

**Q.** What about the “CYP1A-, 2C9- and 3A-activity” value (hESC-derived hepatocytes [2]) of the same compound?
**A.** significant increase

**Q.** What about the CYP1A-activity (hESC-derived hepatocytes [2]) of the same compound?
**A.** increase

**Q.** What about the CYP3A activity (hESC-derived hepatocytes [2]) of the same compound?
**A.** strongest increase

**Q.** And the “effect on CYP1A and 2C9 activity” value (hESC-derived hepatocytes [2])?
**A.** stronger increasing effect

**Q.** What about the “binding to and activation of RXR and RAR” value (RXR; Allenby et al., Idres et al.) of the same compound?
**A.** binds to and activates both RXR and RAR

**Q.** What about the “expression of the adult HNF4a1-3 isoforms” value [3, 9] of the same compound?
**A.** slightly increase

**Q.** And the “expression of the fetal HNF4a4-9 isoforms” value [3, 9]?
**A.** slightly decrease

**Q.** And the “expression of the adult HNF4a1-3 isoforms” value [3, 10]?
**A.** strongly increase

**Q.** What about the “expression of the fetal HNF4a4-9 isoforms” value [3, 10] of the same compound?
**A.** increase

**Q.** What about the “expression of fetal HNF4α isoform (4-9)” value ([3]; 5 hr exposure with 1 μM RA, 7 days later) of the same compound?
**A.** raised over control values

**Q.** What about the “expression of HNF4α isoforms 1-3” value ([3]; 5 hr exposure with 1 μM RA, 7 days later, vs untreated control cells) of the same compound?
**A.** slightly lower

**Q.** And the “expression of HNF4α isoforms 1-3” value ([3]; 5 hr exposure with 1 μM RA, immediately after the exposure)?
**A.** increases

**Q.** And the “expression of HNF4α isoforms 4-9” value ([3]; 5 hr exposure with 1 μM RA, immediately after the exposure, vs control)?
**A.** slightly lower

**Q.** What about the “ratio of HNF4a 1-3 isoforms/4-9 isoforms” value ([3]; 5 hr exposures) of the same compound?
**A.** do not increase

**Q.** And the “ratio of HNF4a 1-3 isoforms/4-9 isoforms” value ([3]; 24 hr and 48 hr RA-exposure and long term/continuous treatment)?
**A.** increase the 1-3/4-9 ratio of hESC-derived hepatocytes to levels similar as in hp hep

**Q.** For `Nc1ncn([C@H]2C[C@H](O)[C@@H](CO)O2)c(=O)n1` [5-aza-2-deoxycytidine], which CYP2C9 activity [4] is on record?
**A.** No additional increase

**Q.** What about the CYP2C9 activity (hESC-derived hepatocytes [5]) of the same compound?
**A.** No additional increase

**Q.** What does the source list for `Nc1ncn([C@@H]2O[C@H](CO)[C@@H](O)[C@H]2O)c(=O)n1` [5-azacytidine]?
**A.** Oct4 and Nanog mRNA [6]: significantly decreased; mRNA expression of the DE markers Sox17 and Cxcr4 [6]: No significant changes

**Q.** With `CC1=C(\C=C/C(C)=C/C=C/C(C)=C/C(=O)O)C(C)(C)CCC1` [7-cis retinoic acid] as the compound, how does the “binding to RAR and RXR” value (RAR) read?
**A.** specifically bind RAR, but not to RXR

**Q.** Which results are given for `CC1=C(/C=C/C(C)=C/C=C\C(C)=C\C(=O)O)C(C)(C)CCC1` [11-cis-retinoic acid]?
**A.** affinity of binding to RXR (RXR): much lower affinity; binding to RAR and RXR (RAR): specifically bind RAR, but not to RXR

**Q.** Which “affinity of binding to RXR” value (RXR) does the source give for `CC1=C(/C=C/C(C)=C/C=C/C(C)=C\C(=O)O)C(C)(C)CCC1` [13cis RA, 13-cis-retinoic acid] here?
**A.** much lower affinity

**Q.** What about the “binding to RAR and RXR” value (RAR) of the same compound?
**A.** specifically bind RAR, but not to RXR

**Q.** For `CC1=C(/C=C/C(C)=C/C=C/C(C)=C/C(=O)O)C(C)(C)CCC1` [ATRA, all trans-retinoic acid], which CYP2C9 activity [7] is on record?
**A.** slightly smaller increase

**Q.** And the “affinity of binding to RXR” value (RXR)?
**A.** much lower affinity

**Q.** And the “binding to RAR and RXR” value (RAR)?
**A.** specifically bind RAR, but not to RXR

**Q.** For `C=C(c1ccc(C(=O)O)cc1)c1cc2c(cc1C)C(C)(C)CCC2(C)C` [LGD1069], which CYP2C9 activity [7] is on record?
**A.** slightly smaller increase

— patent publication US10294457B2, “Maturation of hepatocyte-like cells derived from human pluripotent stem cells” (Takara Bio Europe AB, priority 2012, dated 2019)
